In patent publication US5231013A, “Polycyclic peptide antibiotic gallidermin” (priority 1988, dated 1993):
No end group written: not given here.

Tests used:
Type in all cases: cell-based
Propionibacterium acnes = test: Comparative MIC study with epidermin
Text: In a comparative study with epidermin or Propionibacterium acnes the following MIC values were obtained: […]

Bac. fragilis (Bonn) = test: MIC in liquid BF medium
Experimental: (§1) Minimal inhibitory concentrations (MIC, Table 1) were determined in liquid BF medium of the following composition: sodium lactate 0.5%, sodium sulfate 0.5%, potassium dihydrogenphosphate 0.05%, dipotassium hydrogenphosphate 0.15%, magnesium chloride 0.02%, ammonium chloride 0.05%, glucose 1%; supplemented (per ml) with Ca-pantothenate 50 μg, folic acid 0.25 μg, niacin 50 μg, p-aminobenzoic acid 25 μg, pyridoxal hydrochloride 50 μg and riboflavin 25 μg.

Bac. fragilis (Koln) = test: MIC in liquid BF medium
Experimental: as §1

Cb. xerosis ATCC 9755 = test: MIC in liquid BF medium
Experimental: as §1

E. coli ATCC 11775 = test: MIC in liquid BF medium
Experimental: as §1

Mc. luteus 15957 = test: MIC in liquid BF medium
Experimental: as §1

Mc. luteus ATCC 9341 = test: MIC in liquid BF medium
Experimental: as §1

[1] = test system: Peptostreptococcus anaerobicus; test: MIC in liquid BF medium
Experimental: as §1

Ps. aeruginosa BC 19 = test: MIC in liquid BF medium
Experimental: as §1

Sc. faecalis ATCC 29212 = test: MIC in liquid BF medium
Experimental: as §1

Sc. pyogenes ATCC 8668 = test: MIC in liquid BF medium
Experimental: as §1

St. aureus E 88 = test: MIC in liquid BF medium
Experimental: as §1

St. aureus SG 511 = test: MIC in liquid BF medium
Experimental: as §1

[2] = test system: St. epidermidis ATCC 12228; test: MIC in liquid BF medium
Experimental: as §1

St. pneumoniae ATCC 6302 = test: MIC in liquid BF medium
Experimental: as §1

| Substance | MIC (Propionibacterium acnes) [µg/mL] | MIC (Bac. fragilis (Bonn)) [µg/mL] | MIC (Bac. fragilis (Koln)) [µg/mL] | MIC (Cb. xerosis ATCC 9755) [µg/mL] | MIC (E. coli ATCC 11775) [µg/mL] | MIC (Mc. luteus 15957) [µg/mL] | MIC (Mc. luteus ATCC 9341) [µg/mL] | MIC [1] [µg/mL] | MIC (Ps. aeruginosa BC 19) [µg/mL] | MIC (Sc. faecalis ATCC 29212) [µg/mL] | MIC (Sc. pyogenes ATCC 8668) [µg/mL] | MIC (St. aureus E 88) [µg/mL] | MIC (St. aureus SG 511) [µg/mL] | MIC [2] [µg/mL] | MIC (St. pneumoniae ATCC 6302) [µg/mL] |
| --- | --- | --- | --- | --- | --- | --- | --- | --- | --- | --- | --- | --- | --- | --- | --- |
| Epidermin (IASKFICTPGCAKTGSFNSYCC; cysteine pairing not given here; also: lantibiotic: post-translational modifications not placed; UniProt P08136 31-52, looked up) [known polycyclic lanthionine peptide antibiotic obtained by cultivating a strain of Staphylococcus epidermis; differs from gallidermin by one amino acid, reference compound] | 0.25 |  |  |  |  |  |  |  |  |  |  |  |  |  |  |
| Gallidermin (IASKFLCTPGCAKTGSFNSYCC; cysteine pairing not given here; also: lantibiotic: post-translational modifications not placed; UniProt P21838 31-52, looked up) [polycyclic lanthionine peptide antibiotic produced by cultivation of Staphylococcus gallinarum (F16/P57) Tu 3928 (DSM 4616)] | 0.125 | 128 | 128 | 1 | 128 | 0.5 | 0.25 | 0.5 | 128 | 64 | 1 | 8 | 4 | 4 | 4 |
